Measurements from patent US10082496B2, “Targeting emopamil binding protein (EBP) with small molecules that induce an abnormal feedback response by lowering endogenous cholesterol biosynthesis” (Board of Regents of the University of Texas System, priority 2014, dated 2018).

Columns and labels:
DLD-1 = test: In vitro APC inhibition assay (MTT), DLD-1; assay type: cell-based; details: Homo sapiens
Protocol: (§1) The small molecule anti-cancer compounds were evaluated for the ability to inhibit the activity of APC in an in vitro assay.
(§2) Reagents required for the assay are: (3-[4,5-Dimethylthiazol-2-yl]-2,5-diphenyltetrazolium bromide; Thiazolyl blue; RPI corp., cat# M92050); RPMI-1640 or Medium of Choice (i.e. DMEM) without phenol red; 1M Hepes; 100 mM NaPyruvate; 1000× Gentamicin (50 mg/ml); 100× Penicillin/Streptomycin/Fungizone; 1×PBS; Triton X-100; 1N HCl and Isopropanol. To make the MTT solution (10×), MTT powder was dissolved into complete RPMI (or DMEM solution) to a final concentration of 5 mg/mL and was sterilized by filtration with a 0.2 μm filter. The MTT solubilization solution contained 10% Triton X-100, 0.1N and 80% isopropanol. MTT solution was diluted to 1× with complete medium at 12 mL per plate. The culture dishes (96 wells) were removed from the incubator and the media was discarded. […] The cells were removed from the incubator and the MTT solution was discarded.
(§3) Percent inhibition was determined relative to control reactions without inhibitor, and half maximal inhibitory concentration (IC50) values were determined using a standard four parameter fit to the inhibition data.

S9 half-life = assay type: in vitro ADME; details: S9 fraction; read-out: S9 T1/2
HCT-116 = test: In vitro APC inhibition assay (MTT), HCT-116; assay type: cell-based; details: Homo sapiens, HCT-116, read-out: IC50 (nM) in HCT-116
Protocol: as §1
Reagents required for the assay are: (3-[4,5-Dimethylthiazol-2-yl]-2,5-diphenyltetrazolium bromide; Thiazolyl blue; RPI corp., cat# M92050); RPMI-1640 or Medium of Choice (i.e. DMEM) without phenol red; 1M Hepes; 100 mM NaPyruvate; 1000× Gentamicin (50 mg/ml); 100× Penicillin/Streptomycin/Fungizone; 1×PBS; Triton X-100; 1N HCl and Isopropanol. To make the MTT solution (10×), MTT powder was dissolved into complete RPMI (or DMEM solution) to a final concentration of 5 mg/mL and was sterilized by filtration with a 0.2 μm filter. The MTT solubilization solution contained 10% Triton X-100, 0.1N and 80% isopropanol. MTT solution was diluted to 1× with complete medium at 12 mL per plate. The culture dishes (96 wells) were removed from the incubator and the media was discarded. The plates were washed three times with 1×PBS. 100 μl of 1×MTT solution was added to each well and the plates were incubated in a tissue culture incubator for 2-4 hours, depending on the cell line. The cells were removed from the incubator and the MTT solution was discarded. 200 μl of 1×MTT solubilization solution was added to each well using a multi-channel pipetor and the cells were placed on an orbital shaker for 10 minutes. The results were read on a microtiter plate reader (absorbance=570 nm, reference=700 nm) and data was exported.
as §3

HT-29 = test: In vitro APC inhibition assay (MTT), HT-29; assay type: cell-based; details: Homo sapiens
Protocol: as §1, §2, §3

DLD1 cells = test: Dose response studies in CRC line DLD1 (truncated APC); assay type: cell-based, human; details: varying doses
Protocol: These 14 compounds then were obtained commercially and their IC50 determined by performing dose response studies with half log dilution series at 12 concentration points in two authentic CRC lines: HCT116 (wt APC) and DLD1 (truncated APC).
DLD-1 cells normally are cultured in 10% serum medium, and they are rapidly shifted to 0.2% serum medium for dose response studies.

Compound	IC50 (DLD-1; DLD-1, DLD-1 (truncated APC)) [nM]	IC50 (HCT-116) [nM]	further results
CC1CCN(C2CCN(S(=O)(=O)c3c(C(C)C)cc(C(C)C)cc3C(C)C)CC2)CC1	0.7	–	half-life (S9 half-life): 59 min
CC1CCN(C2CCN(S(=O)(=O)c3cccc4c3OCCO4)CC2)CC1	10	–	half-life (S9 half-life): 22.6 min
CC1CCN(C2CCN(Cc3ccc(OC(F)(F)F)cc3)CC2)CC1	19	–	–
CC1CCCN(C2CCN(S(=O)(=O)c3ccc(C(F)(F)F)cc3)CC2)C1 (stereo not shown)	29	–	–
CC1CCN(C2CCN(S(=O)(=O)c3ccc(OC(F)(F)F)c(Br)c3)CC2)CC1	29	–	–
CC1CCCN(C2CCN(S(=O)(=O)c3ccc(OC(F)(F)F)cc3)CC2)C1 (stereo not shown)	31	–	–
COc1ccc(S(=O)(=O)N2CCC(N3CCC(C)CC3)CC2)c(OC)c1	41	–	–
CC1CCN(C2CCN(S(=O)(=O)c3cccc(OC(F)(F)F)c3)CC2)CC1	56	–	–
Cc1cc(C)c(S(=O)(=O)N2CCC([N+]3(C)CCCC3)CC2)c(C)c1	69	–	–
CCCCC#Cc1cc(S(=O)(=O)N2CCC(N3CCC(C)CC3)CC2)ccc1OC(F)(F)F	147	–	–
Cc1cc(C)c(S(=O)(=O)N2CCC(N3CCCC3)CC2)c(C)c1	172	–	–
CC1CCN(C2CCN(S(=O)(=O)c3ccc(OC(F)(F)F)c(C#CCCCCO)c3)CC2)CC1	205	–	–
CC1CCCN(C2CCN(S(=O)(=O)c3ccc(Oc4ccccc4)cc3)CC2)C1 (stereo not shown)	244	–	–
CC1CCN(C2CCN(S(=O)(=O)c3ccc(Oc4ccccc4)cc3)CC2)CC1	253	–	–
CC1CCCN(C2CCN(S(=O)(=O)c3ccc(F)cc3)CC2)C1 (stereo not shown)	255	–	–
CC1CCCN(C2CCN(S(=O)(=O)c3ccc([N+](=O)[O-])cc3)CC2)C1 (stereo not shown)	366	–	–
CC(C)c1cc(C(C)C)c(S(=O)(=O)N2CCC(N3CCCC3)CC2)c(C(C)C)c1	374	–	–
CC1CCN(C2CCN(S(=O)(=O)c3ccccc3OC(F)(F)F)CC2)CC1	421	–	–
CC1CCN(C2CCN(S(=O)(=O)c3cccc(C(C)(C)C)c3)CC2)CC1	463	–	–
O=S(=O)(c1ccc(OC(F)(F)F)cc1)N1CCC(N2CCOCC2)CC1	501	–	–
C[N+]1(C2CCN(S(=O)(=O)c3cccc4ccccc34)CC2)CCCC1	2300	–	–
O=S(=O)(c1cccc2ccccc12)N1CCC(N2CCCC2)CC1	3900	–	–
C[C@H]1CC[N@@+](C)(C2CCN(S(=O)(=O)c3ccccc3)CC2)CC1	~7960	–	–

Compound	IC50 (DLD-1; DLD-1, DLD-1 (truncated APC)) [nM]	IC50 (HCT-116) [nM]	further results
C[C@H]1CC[N@+](C)(C2CCN(S(=O)(=O)c3ccccc3)CC2)CC1	> 10000	–	–
COc1ccc(S(=O)(=O)N2CCC([N+]3(C)CCCC3)CC2)cc1	> 10000	–	–
C#CCC1CCCCN1C1CCN(S(=O)(=O)c2ccccc2)CC1 (stereo not shown)	–	> 10000	IC50 (HT-29; HT-29, HT-29 (truncated APC)): 1100 nM
C#CCOCCC1CCN(C2CCN(S(=O)(=O)c3ccccc3)CC2)CC1	–	> 10000	IC50 (HT-29; HT-29, HT-29 (truncated APC)): 35 nM
C#CCOCCC1CCCCN1C1CCN(S(=O)(=O)c2ccccc2)CC1 (stereo not shown)	–	> 10000	IC50 (HT-29; HT-29, HT-29 (truncated APC)): 2300 nM
C#CCC1CCN(C2CCN(S(=O)(=O)c3ccccc3)CC2)CC1	18	> 10000	IC50 (HT-29; HT-29, HT-29 (truncated APC)): 4 nM; half-life (S9 half-life): 25.2 min
C#CCOc1ccc(C(=O)c2ccccc2)cc1S(=O)(=O)N1CCC(N2CCC(C)CC2)CC1	504	> 10000	IC50 (HT-29; HT-29, HT-29 (truncated APC)): 185 nM
C#CCOc1ccc(CN2CCC(N3CCC(C)CC3)CC2)cc1N=[N+]=[N-]	921	> 10000	IC50 (HT-29; HT-29, HT-29 (truncated APC)): 437 nM
C#CCOc1ccc(N=[N+]=[N-])cc1S(=O)(=O)N1CCC(N2CCC(C)CC2)CC1	15000	> 10000	IC50 (HT-29; HT-29, HT-29 (truncated APC)): 4500 nM
C#CCC1CCN(C2CCN(S(=O)(=O)c3ccccc3N=[N+]=[N-])CC2)CC1	5300	–	–
C#CCC1CCN(C2CCN(S(=O)(=O)c3ccc(N=[N+]=[N-])cc3)CC2)CC1	235	–	–
C#CCC1CCN(C2CCN(S(=O)(=O)c3cccc(N=[N+]=[N-])c3)CC2)CC1	1900	–	–
Cc1nc(Cl)sc1S(=O)(=O)N1CCC(N2CCC(C)CC2)CC1	–	> 10000	–
Cc1cc(C)c(S(=O)(=O)N2CCC(N3CCCCC3)CC2)c(C)c1	–	> 10000	–
Cc1cc(C)c(S(=O)(=O)N2CCC(N3CCOCC3)CC2)c(C)c1	–	> 10000	–
Cc1cc(C)c(S(=O)(=O)N2CCC(N3CCC(c4ccccc4)CC3)CC2)c(C)c1	–	> 10000	–
Cc1cc(C)c(S(=O)(=O)N2CCC(N3CCC(CCC#N)CC3)CC2)c(C)c1	–	> 10000	–
CC1CCN(C2CCN(S(=O)(=O)c3ccc(C#N)cc3)CC2)CC1	–	> 10000	–
CC1CCN(C2CCN(S(=O)(=O)c3ccc(OC(F)F)cc3)CC2)CC1	–	> 10000	–
CC1CCN(C2CCN(S(=O)(=O)c3cccnc3)CC2)CC1	–	> 10000	IC50 (HT-29; HT-29, HT-29 (truncated APC)): 2200 nM
Cc1cc(C)c(S(=O)(=O)N2CCC(N3CCC(C)OC3)CC2)c(C)c1 (stereo not shown)	–	> 10000	IC50 (HT-29; HT-29, HT-29 (truncated APC)): 61 nM
CC1CCN(C2CCN(S(=O)(=O)c3ccc4ncsc4c3)CC2)CC1	38	> 10000	IC50 (HT-29; HT-29, HT-29 (truncated APC)): 26 nM
CC1CCN(C2CCN(S(=O)(=O)c3ccc(Br)cc3)CC2)CC1	–	> 10000	IC50 (HT-29; HT-29, HT-29 (truncated APC)): 1.2 nM

Compound	IC50 (DLD-1; DLD-1, DLD-1 (truncated APC)) [nM]	IC50 (HCT-116) [nM]	further results
CC1CCN(C2CCN(S(=O)(=O)c3ccc(-c4ccccc4)cc3)CC2)CC1	–	> 10000	IC50 (HT-29; HT-29, HT-29 (truncated APC)): 234 nM
Cc1cc(C)c(S(=O)(=O)N2CCC(N3CCC(Cc4ccccc4)CC3)CC2)c(C)c1	–	> 10000	–
COc1ccc(Br)cc1S(=O)(=O)N1CCC(N2CCC(C)CC2)CC1	–	> 10000	–
CC1CCN(C2CCN(S(=O)(=O)c3ccc(-c4ccc(Cl)cc4)cc3)CC2)CC1	–	> 10000	IC50 (HT-29; HT-29, HT-29 (truncated APC)): 112 nM
COc1ccc(-c2ccc(S(=O)(=O)N3CCC(N4CCC(C)CC4)CC3)cc2)cc1	–	> 10000	IC50 (HT-29; HT-29, HT-29 (truncated APC)): 288 nM
CC1CCN(C2CCN(S(=O)(=O)c3ccc(Br)cc3OC(F)(F)F)CC2)CC1	–	> 10000	–
C#CCC1CCN(C2CCN(S(=O)(=O)c3ccc(Br)cc3)CC2)CC1	–	> 10000	–
Cc1cc(C)c(S(=O)(=O)N2CCC(N3CC(C)CC(C)C3)CC2)c(C)c1 (stereo not shown)	–	> 10000	IC50 (HT-29; HT-29, HT-29 (truncated APC)): 15 nM
Cc1cc(C)c(S(=O)(=O)N2CCC(N3CCC(C(C)C)CC3)CC2)c(C)c1	–	> 10000	–
CC1CCN(C2CCN(S(=O)(=O)c3cccc(Br)c3)CC2)CC1	–	> 10000	–
C[Si](C)(C)C#CCC1CCN(C2CCN(S(=O)(=O)c3ccc(Br)cc3)CC2)CC1	–	> 10000	IC50 (DLD-1; DLD-1 (truncated APC)): 2.9 nM; IC50 (HT-29; HT-29 (truncated APC)): 1.7 nM
CC1CCN(C2CCN(S(=O)(=O)c3ccc(Cl)cc3)CC2)CC1	–	> 10000	IC50 (HT-29; HT-29, HT-29 (truncated APC)): 5.6 nM
Cc1ccc(S(=O)(=O)N2CCC(N3CCC(C)CC3)CC2)cc1	–	> 10000	IC50 (HT-29; HT-29, HT-29 (truncated APC)): 14 nM
CC1CCN(C2CCN(S(=O)(=O)c3ccc(Cl)c(Cl)c3)CC2)CC1	–	> 10000	–
C#CCC1CCN(C2CCN(S(=O)(=O)c3ccc(C(=O)c4ccccc4)cc3)CC2)CC1	4.8	> 10000	IC50 (HT-29; HT-29, HT-29 (truncated APC)): 5.2 nM
CC1CCN(C2CCN(S(=O)(=O)c3ccccc3Br)CC2)CC1	–	> 10000	–
CC1CCN(C2CCN(S(=O)(=O)c3ccccc3-c3ccc(C(F)(F)F)cc3)CC2)CC1	–	> 10000	IC50 (HT-29; HT-29, HT-29 (truncated APC)): 57 nM
CC1CCN(C2CCN(S(=O)(=O)c3cccc(-c4ccccc4)c3)CC2)CC1	–	> 10000	–
COc1ccccc1-c1ccc(S(=O)(=O)N2CCC(N3CCC(C)CC3)CC2)cc1	–	> 10000	IC50 (HT-29; HT-29, HT-29 (truncated APC)): 19 nM
CC1CCN(C2CCN(S(=O)(=O)c3ccc(-c4ccccc4F)cc3)CC2)CC1	–	> 10000	–
CC(C(O)c1ccc(O)cc1)N1CCC(Cc2ccccc2)CC1 (stereo not shown) [Ifenprodil]	–	–	sensitivity of DLD-1 vs HCT-116 cells to EBP inhibitors (FIG. 10) (DLD1 cells): selectively sensitive
COc1ccc2c(c1)CCC(c1ccccc1)=C2c1ccc(OCCN2CCCC2)cc1 [Nafoxidine]	–	–	sensitivity of DLD-1 vs HCT-116 cells to EBP inhibitors (FIG. 10) (DLD1 cells): selectively sensitive
COc1ccc(S(=O)(=O)N2CCC(N3CCC(C)CC3)CC2)cc1 [drawing 83]	–	> 10000	–
